According to US5973201A, “Phenylacetamide derivatives” (Korea Research Institute of Chemical Technology, priority 1995, dated 1999):

Tests used:
[1] = Toxicity test: behavioral changes in the test animals; assay type: in vivo; conditions: score; for Convulsion / Salivation / Urination: normal value 0; for Dyspnoea / Ptosis / Sedation / Vasodilation: normal value 4
[2] = phenyl-1,4-benzoquinone (PBQ) induced writhing test (analgesic effect); assay type: in vivo, KTC-ICR rats; conditions: Mus musculus
Protocol: (§1) The physiological activities of the compounds of the present invention prepared according to Example 1 to 6 were measured by employing acetic acid or phenyl-1,4-benzoquinone (PBQ) induced writhing test method.
(§2) In case of the acetic acid-induced writhing test, KTC-ICR […] (available from animal laboratory of Korea Research Institute of Chemical Technology) each having a body weight of 20-25 g were used, while in the PBQ induced writhing test, KTC-ICR […] each having a body weight of 14-18 g were employed. A group consisting of 8 mice which had been adjusted to the testing environment for a week were used in determining the effects of each dosage of a test compound. Water and food were given frelly and illumination was maintained on a 12-hour cycle.
(§3) Test solutions were prepared by dissolving one of the final products obtained in Examples 1 to 6 in distilled water containing 1% of Tween and 5% ethanol in a pre-determined concentration. The test solutions were used after serial dilution depending on each dosage.
(§4) The test solutions were […] administered in a dose of 0.1 ml per 10 g of a body weight. 0.1 ml of 1% acetic acid solution or 0.1 ml of 0.02% PBQ solution was administered […] or after 30 minutes in case of subcutaneous injection.
(§5) Then, the number of writhings generated during a period of 10 minutes after 3 minutes from the administration of acetic acid was measured. in case of the administration of PBQ, the number of writhings generated during a period of 5 minutes after 5 minutes from the administration was measured.
(§6) For a comparison purpose, initially, distilled water containing 1% of Tween and 5% ethanol alone was administered to the control group. Then, the control groups were subjeted the same procedure as the test groups.
(§7) The number of writhings suffered by the test group was compared with that of the control group; and the analgesic effect was measured in terms of the percentage of inhibition of writhing (I.W.). [formula] wherein: A is the number of writhings suffered by the control group; and
(§8) B is the number of writhings suffered by the test group.
(§9) I.W. values for each dosage were calculated by employing regression analysis. The amount of a test compound which is required in reducing the frequency of writhings to the 50% level of that generated by the control group, i.e., B=0.5A or I.W.=50%, is designated as ED50 (mg/kg of a body weight). Therefore, a lower value of ED50 represents a higher analgesic effect of the tested compound.

[3] = acetic acid-induced writhing test (analgesic effect); assay type: in vivo, KTC-ICR rats; conditions: Mus musculus
Protocol: as §1, §2, §3, §4, §5, §6, §7, §8, §9

[4] = PBQ, dose reducing writhing to 50% of control, read-out: ED50
[5] = acetic acid, dose reducing writhing to 50% of control, read-out: ED50

Compound `COc1cc(CC(=O)NCCCOc2ccc(C)c(C)c2)ccc1OCCN` [Example 2, N-{3-(3,4-dimethylphenoxy)propyl}-4-(2-aminoethoxy)-3-methoxyphenylacetamide] has a Convulsion ([1]; 2.5 mg/kg) of 0, a Salivation ([1]; 2.5 mg/kg) of 0 and a Urination ([1]; 2.5 mg/kg) of 0. It also gave a Dyspnoea ([1]; 2.5 mg/kg) of 4, a Ptosis ([1]; 2.5 mg/kg) of 4 and a Sedation ([1]; 2.5 mg/kg) of 4. The Vasodilation ([1]; 2.5 mg/kg) was 4, the Convulsion ([1]; 5 mg/kg) was 0 and the Salivation ([1]; 5 mg/kg) was 0. For the same compound, the Urination ([1]; 5 mg/kg) was 0, the Dyspnoea ([1]; 5 mg/kg) was 5 and the Ptosis ([1]; 5 mg/kg) was 6. It also gave a Sedation ([1]; 5 mg/kg) of 6, a Vasodilation ([1]; 5 mg/kg) of 5 and a Convulsion ([1]; 10 mg/kg) of 0. For the same compound, the Salivation ([1]; 10 mg/kg) was 0, the Urination ([1]; 10 mg/kg) was 0 and the Dyspnoea ([1]; 10 mg/kg) was 7. The Ptosis ([1]; 10 mg/kg) was 6, the Sedation ([1]; 10 mg/kg) was 7 and the Vasodilation ([1]; 10 mg/kg) was 6. The ED50 [2, 4] was 7.02 mg/kg.
`COc1cc(CC(=O)NCCOCc2ccc(C)c(C)c2)ccc1O` [Example 4, N-{2-(3,4-dimethylbenzyloxy)ethyl}-4-hydroxy-3-methoxyphenylacetamide] gave an ED50 [3, 5] of 2.08 mg/kg, a Convulsion ([1]; 1.25 mg/kg) of 0 and a Salivation ([1]; 1.25 mg/kg) of 0. It also gave a Urination ([1]; 1.25 mg/kg) of 0, a Dyspnoea ([1]; 1.25 mg/kg) of 4 and a Ptosis ([1]; 1.25 mg/kg) of 4. For the same compound, the Sedation ([1]; 1.25 mg/kg) was 4, the Vasodilation ([1]; 1.25 mg/kg) was 4 and the Convulsion ([1]; 2.5 mg/kg) was 0. It also gave a Salivation ([1]; 2.5 mg/kg) of 0, a Urination ([1]; 2.5 mg/kg) of 0 and a Dyspnoea ([1]; 2.5 mg/kg) of 5. The Ptosis ([1]; 2.5 mg/kg) was 6, the Sedation ([1]; 2.5 mg/kg) was 6 and the Vasodilation ([1]; 2.5 mg/kg) was 4. It also gave a Convulsion ([1]; 5 mg/kg) of 0, a Salivation ([1]; 5 mg/kg) of 0 and a Urination ([1]; 5 mg/kg) of 0. It also gave a Dyspnoea ([1]; 5 mg/kg) of 6, a Ptosis ([1]; 5 mg/kg) of 7 and a Sedation ([1]; 5 mg/kg) of 7. The Vasodilation ([1]; 5 mg/kg) was 5.
In the case of `COc1cc(CNC(=O)CCCC/C=C/C(C)C)ccc1O` [Capsaicin, N-vanillyl-trans-8-methyl-6-nonenamide, reference compound], the ED50 [3] is reported as 1.34 mg/kg.
Compound `CC(C)Cc1ccc(C(C)C(=O)O)cc1` (centres unmarked) [Ibuprofen] has an ED50 [2, 4] of 11 mg/kg.
`CC(=O)Oc1ccccc1C(=O)O` [Aspirin, acetylsalicylic acid] gave an ED50 [2] of 71.4 mg/kg.
`CCCCCCCC/C=C\CCCCCCCC(=O)NCc1ccc(OCCN)c(OC)c1` [NE-21610, reference compound] showed an ED50 [3, 5] of over 300 mg/kg and an ED50 [2, 4] of 38.3 mg/kg.
`COc1ccc2cc([C@H](C)C(=O)O)ccc2c1` [Naproxen] gave an ED50 [2, 4] of 17.1 mg/kg.
Compound `COc1cc(CC(=O)NCCSc2ccc(C)cc2)ccc1OCCN` [Example 5, N-{2-(4-methylthiophenoxy)ethyl}-4-(2-aminoethoxy)-3-methoxyphenylacetamide] has an ED50 [3, 5] of 0.84 mg/kg, a Convulsion ([1]; 0.63 mg/kg) of 0 and a Salivation ([1]; 0.63 mg/kg) of 0. It also gave a Urination ([1]; 0.63 mg/kg) of 0, a Dyspnoea ([1]; 0.63 mg/kg) of 4 and a Ptosis ([1]; 0.63 mg/kg) of 4. It also gave a Sedation ([1]; 0.63 mg/kg) of 4, a Vasodilation ([1]; 0.63 mg/kg) of 4 and a Convulsion ([1]; 1.25 mg/kg) of 0. It also gave a Salivation ([1]; 1.25 mg/kg) of 0, a Urination ([1]; 1.25 mg/kg) of 0 and a Dyspnoea ([1]; 1.25 mg/kg) of 6. The Ptosis ([1]; 1.25 mg/kg) was 6, the Sedation ([1]; 1.25 mg/kg) was 6 and the Vasodilation ([1]; 1.25 mg/kg) was 4. The Convulsion ([1]; 2.5 mg/kg) was 0, the Salivation ([1]; 2.5 mg/kg) was 0 and the Urination ([1]; 2.5 mg/kg) was 0. The Dyspnoea ([1]; 2.5 mg/kg) was 6, the Ptosis ([1]; 2.5 mg/kg) was 6 and the Sedation ([1]; 2.5 mg/kg) was 7. For the same compound, the Vasodilation ([1]; 2.5 mg/kg) was 5.
In the case of `COc1cc(CC(=O)NCCSc2ccc(C)c(C)c2)ccc1OCCN` [Example 6, N-{2-(3,4-dimethylthiophenoxy)ethyl}-4-(2-aminoethoxy)-3-methoxyphenylacetarnide], the ED50 [3, 5] is reported as 0.48 mg/kg, the Convulsion ([1]; 0.31 mg/kg) is reported as 0 and the Salivation ([1]; 0.31 mg/kg) is reported as 0. The Urination ([1]; 0.31 mg/kg) was 0, the Dyspnoea ([1]; 0.31 mg/kg) was 4 and the Ptosis ([1]; 0.31 mg/kg) was 4. For the same compound, the Sedation ([1]; 0.31 mg/kg) was 4, the Vasodilation ([1]; 0.31 mg/kg) was 4 and the Convulsion ([1]; 0.63 mg/kg) was 0. It also gave a Salivation ([1]; 0.63 mg/kg) of 0, a Urination ([1]; 0.63 mg/kg) of 0 and a Dyspnoea ([1]; 0.63 mg/kg) of 4. For the same compound, the Ptosis ([1]; 0.63 mg/kg) was 5, the Sedation ([1]; 0.63 mg/kg) was 6 and the Vasodilation ([1]; 0.63 mg/kg) was 4. It also gave a Convulsion ([1]; 1.25 mg/kg) of 0, a Salivation ([1]; 1.25 mg/kg) of 0 and a Urination ([1]; 1.25 mg/kg) of 0. For the same compound, the Dyspnoea ([1]; 1.25 mg/kg) was 6, the Ptosis ([1]; 1.25 mg/kg) was 6 and the Sedation ([1]; 1.25 mg/kg) was 6. For the same compound, the Vasodilation ([1]; 1.25 mg/kg) was 5.
For `COc1cc(CC(=O)NCCCc2ccc(C)c(C)c2)ccc1OCCN` [Control, reference compound], the Convulsion ([1]; 0.25 mg/kg) was 1, the Salivation ([1]; 0.25 mg/kg) was 0 and the Urination ([1]; 0.25 mg/kg) was 0. For the same compound, the Dyspnoea ([1]; 0.25 mg/kg) was 5, the Ptosis ([1]; 0.25 mg/kg) was 6 and the Sedation ([1]; 0.25 mg/kg) was 6. The Vasodilation ([1]; 0.25 mg/kg) was 5, the Convulsion ([1]; 0.5 mg/kg) was 1 and the Salivation ([1]; 0.5 mg/kg) was 0. The Urination ([1]; 0.5 mg/kg) was 0, the Dyspnoea ([1]; 0.5 mg/kg) was 6 and the Ptosis ([1]; 0.5 mg/kg) was 7. It also gave a Sedation ([1]; 0.5 mg/kg) of 7, a Vasodilation ([1]; 0.5 mg/kg) of 5 and a Convulsion ([1]; 1 mg/kg) of 1. The Salivation ([1]; 1 mg/kg) was 0, the Urination ([1]; 1 mg/kg) was 0 and the Dyspnoea ([1]; 1 mg/kg) was 6. For the same compound, the Ptosis ([1]; 1 mg/kg) was 7, the Sedation ([1]; 1 mg/kg) was 7 and the Vasodilation ([1]; 1 mg/kg) was 6.
With `CCCCCCCC/C=C\CCCCCCCC(=O)NCc1ccc(O)c(OC)c1` [NE-19550, Nvanillyloleamide, reference compound] the ED50 [3] was 15.7 mg/kg.
Compound `COc1cc(CC(=O)NCCOCc2ccc(C)c(C)c2)ccc1OCCN` [Example 3, N-{2-(3,4-dimethylbenzyloxy)ethyl}-4-(2-aminoethoxy)-3-methoxyphenylacetamide] has a Convulsion ([1]; 5 mg/kg) of 0, a Salivation ([1]; 5 mg/kg) of 0 and a Urination ([1]; 5 mg/kg) of 0. It also gave a Dyspnoea ([1]; 5 mg/kg) of 4, a Ptosis ([1]; 5 mg/kg) of 4 and a Sedation ([1]; 5 mg/kg) of 4. For the same compound, the Vasodilation ([1]; 5 mg/kg) was 4, the Convulsion ([1]; 10 mg/kg) was 0 and the Salivation ([1]; 10 mg/kg) was 0. For the same compound, the Urination ([1]; 10 mg/kg) was 0, the Dyspnoea ([1]; 10 mg/kg) was 4 and the Ptosis ([1]; 10 mg/kg) was 4. For the same compound, the Sedation ([1]; 10 mg/kg) was 4, the Vasodilation ([1]; 10 mg/kg) was 4 and the Convulsion ([1]; 20 mg/kg) was 0. For the same compound, the Salivation ([1]; 20 mg/kg) was 0, the Urination ([1]; 20 mg/kg) was 0 and the Dyspnoea ([1]; 20 mg/kg) was 4. The Ptosis ([1]; 20 mg/kg) was 5, the Sedation ([1]; 20 mg/kg) was 5 and the Vasodilation ([1]; 20 mg/kg) was 4. It also gave an ED50 [2, 4] of 10.9 mg/kg.
With `CCCCC1C(=O)N(c2ccccc2)N(c2ccccc2)C1=O` [Phenylbutazone] the ED50 [2, 4] was 79.8 mg/kg.
Compound `COc1cc(CC(=O)NCCOc2ccc(C)c(C)c2)ccc1OCCN` [Example 1, N-{2-(3,4-dimethylphenoxy)ethyl}-4-(2-aminoethoxy)-3-methoxyphenylacetamide] has an ED50 [2, 4] of 9.53 mg/kg.
